Experimental data as given in the RepoRT retention time repository (doi:10.1016/j.jchromb.2020.122105).

Experiments:
Conditions in all cases: stereoisomer not certain
[1] = RP, Waters CORTECS T3, 100 × 2.1 mm, 2.7 µm, 0.2 mL/min, estimated dead time 1.1 min; A: water + 0.1% formic acid, pH 3; B: methanol + 0.1% formic acid, pH 3; gradient (min/%B) 0/0 1/0 6/5 30/100 35/100 35.1/0 40/0
[2] = HILIC, Thermo Scientific Accucore HILIC, 100 × 2.1 mm, 2.6 µm, 0.5 mL/min, estimated dead time 0.44 min; A: water + 0.1% formic acid + 10 mM ammonium formate, pH 3; B: 5% water + 95% acetonitrile + 0.1% formic acid + 10 mM ammonium formate, pH 3; gradient (min/%B) 0/95 5/95 20/57 25/57 30/95 40/95
[3] = HILIC, Merck SeQuant ZIC-HILIC, 150 × 2.1 mm, 5 µm, 0.75 mL/min, estimated dead time 0.44 min; A: water + 0.1% acetic acid + 10 mM ammonium acetate, pH 4; B: 5% water + 95% acetonitrile + 0.1% acetic acid + 10 mM ammonium acetate, pH 4; gradient (min/%B) 0/95 5/95 20/57 25/57 30/95 40/95
[4] = RP, Waters ACQUITY UPLC BEH C18, 100 × 2.1 mm, 1.7 µm, 0.2 mL/min, estimated dead time 1.1 min; A: water + 0.025% formic acid + 20 mM ammonium acetate + 0.055% ammonium hydroxide, pH 7; B: methanol; gradient (min/%B) 0/5 5/5 25/100 30/100 30.1/5 35/5
[5] = RP, Waters CORTECS T3, 100 × 2.1 mm, 2.7 µm, 0.15 mL/min, estimated dead time 1.5 min; A: water + 0.1% formic acid, pH 3; B: methanol + 0.1% formic acid, pH 3; gradient (min/%B) 0/5 5/5 25/95 25.1/100 35/100 35.1/5 45/5
[6] = RP, Waters ACQUITY UPLC BEH C18, 100 × 2.1 mm, 1.7 µm, 0.2 mL/min, estimated dead time 1.1 min; A: water + 0.1% formic acid, pH 3; B: methanol + 0.1% formic acid, pH 3; gradient (min/%B) 0/5 5/5 25/100 30/100 30.1/5 35/5
[7] = RP, Waters CORTECS T3, 100 × 2.1 mm, 2.7 µm, 0.3 mL/min, estimated dead time 0.73 min; A: water + 0.1% formic acid, pH 3; B: methanol + 0.1% formic acid, pH 3; gradient (min/%B) 0/0 1/0 6/5 30/100 35/100 35.1/0 40/0
[8] = RP, Waters CORTECS T3, 100 × 2.1 mm, 2.7 µm, 0.3 mL/min, estimated dead time 0.73 min; A: water + 0.1% formic acid, pH 3; B: methanol + 0.1% formic acid, pH 3; gradient (min/%B) 0/0 5/0 25/100 30/100 30.1/0 35/0
[9] = HILIC, Merck SeQuant ZIC-HILIC, 150 × 2.1 mm, 5 µm, 0.75 mL/min, estimated dead time 0.44 min; A: water + 10 mM ammonium formate, pH 6; B: 5% water + 95% acetonitrile + 10 mM ammonium formate, pH 6; gradient (min/%B) 0/95 5/95 20/57 25/57 30/95 40/95
[10] = HILIC, Waters XBridge BEH Amide, 100 × 2.1 mm, 2.5 µm, 0.5 mL/min, estimated dead time 0.44 min; A: water + 0.1% acetic acid + 10 mM ammonium acetate, pH 4; B: 5% water + 95% acetonitrile + 0.1% acetic acid + 10 mM ammonium acetate, pH 4; gradient (min/%B) 0/95 5/95 20/57 25/57 30/95 40/95
[11] = RP, Waters CORTECS T3, 100 × 2.1 mm, 2.7 µm, 0.25 mL/min, estimated dead time 0.88 min; A: water + 0.1% formic acid, pH 3; B: methanol + 0.1% formic acid, pH 3; gradient (min/%B) 0/5 5/5 25/95 25.1/100 35/100 35.1/5 45/5
[12] = RP, Waters ACQUITY UPLC BEH C18, 100 × 2.1 mm, 1.7 µm, 0.1 mL/min, estimated dead time 2.2 min; A: water + 0.1% formic acid, pH 3; B: methanol + 0.1% formic acid, pH 3; gradient (min/%B) 0/5 5/5 25/95 25.1/100 35/100 35.1/5 45/5
[13] = RP, Waters CORTECS T3, 100 × 2.1 mm, 2.7 µm, 0.2 mL/min, estimated dead time 1.1 min; A: water + 0.1% formic acid, pH 3; B: methanol + 0.1% formic acid, pH 3; gradient (min/%B) 0/5 5/5 25/95 25.1/100 35/100 35.1/5 45/5
[14] = RP, Waters ACQUITY UPLC BEH C18, 100 × 2.1 mm, 1.7 µm, 0.1 mL/min, estimated dead time 2.2 min; A: water + 0.045% formic acid + 0.11% ammonium hydroxide, pH 7; B: methanol; gradient (min/%B) 0/5 5/5 25/95 25.1/100 35/100 35.1/5 45/5
[15] = RP, Waters CORTECS T3, 100 × 2.1 mm, 2.7 µm, 0.2 mL/min, estimated dead time 1.1 min; A: water + 0.1% formic acid, pH 3; B: methanol + 0.1% formic acid, pH 3; gradient (min/%B) 0/0 1/0 6/5 30/100 35/100 35.1/0 40/0; remark: listed apart in the source
[16] = RP, Waters CORTECS T3, 100 × 2.1 mm, 2.7 µm, 0.3 mL/min, estimated dead time 0.73 min; A: water + 0.1% formic acid, pH 3; B: methanol + 0.1% formic acid, pH 3; gradient (min/%B) 0/5 5/5 25/100 30/100 30.1/5 35/5
[17] = RP, Waters CORTECS T3, 100 × 2.1 mm, 2.7 µm, 0.1 mL/min, estimated dead time 2.2 min; A: water + 0.1% formic acid, pH 3; B: methanol + 0.1% formic acid, pH 3; gradient (min/%B) 0/5 5/5 25/95 25.1/100 35/100 35.1/5 45/5
[18] = RP, Waters ACQUITY UPLC BEH C18, 100 × 2.1 mm, 1.7 µm, 0.1 mL/min, estimated dead time 2.2 min; A: water + 0.1% formic acid, pH 3; B: methanol + 0.1% formic acid, pH 3; gradient (min/%B) 0/5 5/5 25/95 25.1/100 35/100 35.1/5 45/5; remark: listed apart in the source
[19] = RP, Waters CORTECS T3, 100 × 2.1 mm, 2.7 µm, 0.1 mL/min, estimated dead time 2.2 min; A: water + 0.1% formic acid, pH 3; B: methanol + 0.1% formic acid, pH 3; gradient (min/%B) 0/0 1/0 6/5 30/100 35/100 35.1/0 40/0
[20] = RP, Waters CORTECS T3, 100 × 2.1 mm, 2.7 µm, 0.25 mL/min, estimated dead time 0.88 min; A: water + 0.1% formic acid, pH 3; B: methanol + 0.1% formic acid, pH 3; gradient (min/%B) 0/0 1/0 6/5 30/100 35/100 35.1/0 40/0
[21] = RP, Waters CORTECS T3, 100 × 2.1 mm, 2.7 µm, 0.15 mL/min, estimated dead time 1.5 min; A: water + 0.1% formic acid, pH 3; B: methanol + 0.1% formic acid, pH 3; gradient (min/%B) 0/0 1/0 6/5 30/100 35/100 35.1/0 40/0
[22] = RP, Waters CORTECS T3, 100 × 2.1 mm, 2.7 µm, 0.3 mL/min, estimated dead time 0.73 min; A: water + 0.1% formic acid, pH 3; B: methanol + 0.1% formic acid, pH 3; gradient (min/%B) 0/0 5/0 25/100 30/100 30.1/0 35/0; remark: listed apart in the source
[23] = RP, Waters CORTECS T3, 100 × 2.1 mm, 2.7 µm, 0.3 mL/min, estimated dead time 0.73 min; A: water + 0.1% formic acid, pH 3; B: methanol + 0.1% formic acid, pH 3; gradient (min/%B) 0/5 5/5 25/95 25.1/100 35/100 35.1/5 45/5
[24] = RP, Waters CORTECS T3, 100 × 2.1 mm, 2.7 µm, 0.3 mL/min, estimated dead time 0.73 min; A: water + 0.1% formic acid, pH 3; B: methanol + 0.1% formic acid, pH 3; gradient (min/%B) 0/0 1/0 6/5 30/100 35/100 35.1/0 40/0; remark: listed apart in the source
[25] = RP, Waters ACQUITY UPLC BEH C18, 100 × 2.1 mm, 1.7 µm, 0.1 mL/min, estimated dead time 2.2 min; A: water + 0.1% formic acid, pH 3; B: methanol + 0.1% formic acid, pH 3; gradient (min/%B) 0/5 5/5 25/100 30/100 30.1/5 35/5
[26] = RP, Waters ACQUITY UPLC BEH C18, 100 × 2.1 mm, 1.7 µm, 0.1 mL/min, estimated dead time 2.2 min; A: water + 0.1% formic acid, pH 3; B: methanol + 0.1% formic acid, pH 3; gradient (min/%B) 0/5 5/5 25/95 25.1/100 35/100 35.1/5 45/5; remark: listed apart in the source

| Compound | LC retention time [1] [min] | LC retention time [2] [min] | LC retention time [3] [min] | LC retention time [4] [min] | LC retention time [5] [min] | LC retention time [6] [min] | LC retention time [7] [min] | LC retention time [8] [min] | LC retention time [9] [min] | LC retention time [10] [min] | LC retention time [11] [min] | LC retention time [12] [min] | LC retention time [13] [min] | LC retention time [16] [min] | LC retention time [17] [min] | LC retention time [18] [min] | LC retention time [23] [min] | LC retention time [25] [min] | LC retention time [26] [min] | other results |
| --- | --- | --- | --- | --- | --- | --- | --- | --- | --- | --- | --- | --- | --- | --- | --- | --- | --- | --- | --- | --- |
| O=C(O)c1ccc2ccccc2c1[O-] [1-HYDROXY-2-NAPHTHOATE] | 23.3 | 0.82 | 1.27 | 14.1 | 21.9 | 21.1 | 21.7 | 19.1 | 1.33 | 1.05 | 19.9 | 25.1 | 26.8 | – | – | – | – | – | – | – |
| N[C@@H](Cc1cc(I)c(O)c(I)c1)C(=O)O [3,5-DIIODO-L-TYROSINE] | – | 9.05 | – | – | – | – | – | – | – | – | – | – | – | 10.9 | 15.8 | 16.1 | 11.1 | 15.8 | 16.1 | LC retention time [14]: 10.8 min; LC retention time [15]: 14.1 min; LC retention time [19]: 12.5 min; LC retention time [20]: 13.3 min; LC retention time [21]: 15.4 min; LC retention time [22]: 12 min; LC retention time [24]: 12.6 min |
| O=C([O-])CCc1ccccc1O [3-(2-HYDROXYPHENYL)PROPANOATE] | 15.9 | 0.87 | 2.27 | 6.28 | 15.5 | 14.4 | 14.2 | 13.3 | 1.85 | 1.75 | 13.2 | 18.3 | 19.6 | – | – | – | – | – | – | – |

More lines, main results first:

| LC retention time [1] [min] | LC retention time [2] [min] | LC retention time [3] [min] | LC retention time [4] [min] | LC retention time [5] [min] | LC retention time [6] [min] | LC retention time [7] [min] | LC retention time [8] [min] | LC retention time [9] [min] | LC retention time [10] [min] | LC retention time [11] [min] | LC retention time [12] [min] | LC retention time [13] [min] | LC retention time [16] [min] | LC retention time [17] [min] | LC retention time [18] [min] | LC retention time [23] [min] | LC retention time [25] [min] | LC retention time [26] [min] | Compound | other results |
| --- | --- | --- | --- | --- | --- | --- | --- | --- | --- | --- | --- | --- | --- | --- | --- | --- | --- | --- | --- | --- |
| 6.16 | 1.15 | 1.41 | 3.81 | 4.64 | 3.4 | 4.57 | 4.79 | 1.42 | 1.28 | 2.84 | 6.57 | 10.4 | – | – | – | – | – | – | Cc1ncc(CO)c(C(=O)O)c1O [4-PYRIDOXATE] | – |
| 1.38 | 8.77 | 11.6 | 1.36 | 1.78 | 1.38 | 0.92 | 0.93 | 12.3 | – | 1.08 | 2.7 | 2.72 | 0.93 | 2.66 | 2.66 | 0.9 | 2.74 | 2.72 | O=c1[nH]c(=O)c2[nH]c(=O)[nH]c2[nH]1 [URATE] | – |
